Entries after “also recorded” stand apart in the source; their conditions may differ. Where two headings read alike, the source gives them in different places.
Legend:
[1] = molecular target: Clu-GABA α3β2γ2 (Canis lupus familiaris, UniProt A0A8I3PRS3+A0A8I3RPG5+E2RSQ0); assay: Two-electrode voltage-clamp inhibition of GABA current, receptor expressed in Xenopus oocytes; type: cell-based
Text: (§1) Complementary DNA (cDNA) encoding for the human GABAA proteins α1 (NM_001127645.2), α2 (NM_001377146.1), α3 (KJ620007.1), α4 (NM_000809.4), α5 (NM_000810.4), α6 (NM_000811.3), β2 (XM_054352312.1), β3 (M82919.1), γ2 (NM_000816.3) and δ (NM_000815.5) were ordered from Genewiz (www.genewiz.com; Leipzig, Germany); for each gene, GenBank accession numbers are provided in parentheses. When necessary, silent mutations were introduced to break NheI or XhoI internal restriction sites. The corresponding open reading frames (ORF) were cloned into the pT7-TS transcription vector (introducing X. laevis β-globin untranslated cDNA to the 5’ and 3’ ends of the gene), following a procedure described in detail in a previous publication. The same process was used to obtain cDNA encoding canine GABAA proteins α4 (XM_025435560.1), α6 (XM_022417729.1) and δ (XM_005620414.2). Gene α2 (XM_025435664.1), α3 (XM_549343.5), α5 (XM_545805.6) and β3 (XM_025437408.1) were obtained by PCR; GenBank reference accession numbers are provided in parentheses. RNA extraction, cDNA synthesis and PCR amplification were performed as described previously. Total RNA was extracted from a piece of dog brain (Beagle breed; Canis lupus familiaris) from which 1 µg of total RNA (DNase-treated) was reverse-transcribed to cDNA using a (dT)30 primer and SuperScript III Reverse Transcriptase (Invitrogen, Thermo Fisher Scientific, Waltham, MA, USA). Gene-specific primers (Additional file 1: Table S1) were designed using Primer 3 software (http://frodo.wi.mit.edu/). […] The cycling conditions were: 98 °C for 30 s; then 38 cycles of 98 °C for 10 s, 58 °C for 30 s and 72 °C for 90 s; followed by 72 °C for 5 min. The dog subunits α1 (XM_546261.5), β2 (XM_014113040.1) and γ2 (XM_546259.5) had been previously amplified and described in a study by Rufener et al..
(§2) Defoliculated X. laevis oocytes ordered from Ecocyte Bioscience (Dortmund, Germany) were microinjected with 15–25 nl of cRNA solution (5–50 ng/μl) per oocyte using an automated injector (Roboinject; Multi Channel Systems MCS GmbH, Reutlingen, Germany) and then incubated at 18 °C. All recordings were made 1–5 days post-cRNA injection and were performed at 18 ± 4 °C. Cells were superfused with OR2 medium (NaCl 88 mM, KCl 2.5 mM, HEPES 5 mM, CaCl2•2H2O 1.8 mM, MgCl2•7H2O 1.0 mM, pH 7.4). To ensure that γ2 subunits were integrated into the heteropentamers, we injected fivefold more γ2 than the other subunit cRNAs. Diazepam is a positive allosteric modulator of GABAR only if γ2 subunits are present. Therefore, we used this method to confirm the presence of human and dog GABAA receptor containing the γ2 subunit.
(§3) Voltage-clamp measurements were performed as described by Rufener et al.. Oocytes were impaled with two electrodes filled with 3 M KCl, and their membrane potentials were maintained at − 80 mV throughout the experiment. […] Recordings were performed using an automated process equipped with standard two-electrode voltage-clamp configuration (HiClamp system; Multi Channel Systems MCS GmbH). Data were filtered at 10 Hz, captured at 100 Hz and analyzed using proprietary data acquisition and analysis software in MATLAB (Mathworks Inc., Natick, MA, USA). Additional analyses were performed using Excel (Microsoft, Redmond, WA, USA). […] Graphing the maximum inward currents against the log of agonist concentration produces typical concentration-activation and concentration-inhibition curves, which can be accurately described using individual Hill equations.

[2] = molecular target: Clu-GABA α1β2γ2 (Canis lupus familiaris, UniProt A0A2H4NNI8+A0A8I3RPG5+E2RSQ0); assay: as above; type: cell-based
Text: as §1, §2, §3

[3] = molecular target: Clu-GABA α5β2γ2 (Canis lupus familiaris, UniProt A0A8I3PC22+A0A8I3RPG5+E2RSQ0); assay: as above; type: cell-based
Text: as §1, §2, §3

[4] = molecular target: Clu-GABA α2β2γ2 (Canis lupus familiaris, UniProt A0A8I3RPG5+A0A8I3S1N5+E2RSQ0); assay: as above; type: cell-based
Text: as §1, §2, §3

[5] = molecular target: Clu-GABA α2β3γ2 (Canis lupus familiaris, UniProt A0A8I3NUI4+A0A8I3S1N5+E2RSQ0); assay: as above; type: cell-based
Text: as §1, §2, §3

[6] = test system: Clu-GABARs; assay: Voltage-clamp inhibition, summary over the five canine subunit combinations; type: cell-based, Canis lupus familiaris; conditions: at 30 μM
Protocol: as §2
as §3, with “equations. The concentration-activation curves were fitted using the following equation: Y=100/1+10^H(logEC50-X) where Y is the normalized response, logEC50 is the logarithm of the concentration of agonist eliciting half-maximal current amplitude, X is the log of the dose or concentration, and H is the slope factor or Hill slope. The same equation was used for the concentration-inhibition curves but logEC50 was replaced by logIC50 (half-maximal inhibitory concentration).” for “equations.”
(§4) The agonist and the drug were then washed off for 15 s and the oocyte was exposed again to the same drug concentration for 25 s before increasing to the next concentration.

[7] = set-up: method as in PMID 33733534; conditions: cited from earlier work; for maximum in vivo concentration in dog plasma: oral treatment at the minimum recommended dose; for maximum plasma concentration: dose of 25 mg/kg body weight
[8] = test system: human and canine GABARs; assay: Voltage-clamp inhibition, summary over human and canine receptors; type: cell-based; conditions: for inhibitory effect on human and canine GABARs (in words): tested up to 30 μM
Protocol: as §2
as §3, with “equations. The concentration-activation curves were fitted using the following equation: Y=100/1+10^H(logEC50-X) where Y is the normalized response, logEC50 is the logarithm of the concentration of agonist eliciting half-maximal current amplitude, X is the log of the dose or concentration, and H is the slope factor or Hill slope. The same equation was used for the concentration-inhibition curves but logEC50 was replaced by logIC50 (half-maximal inhibitory concentration).” for “equations.”
as §4

[9] = molecular target: Hsa-GABA α5β2γ2 (Homo sapiens, UniProt P18507+P31644+P47870); assay: Two-electrode voltage-clamp inhibition of GABA current, receptor expressed in Xenopus oocytes
Text: as §1, §2, §3

[10] = molecular target: Hsa-GABA α6β2γ2 (Homo sapiens, UniProt P18507+P47870+Q16445); assay: as above
Text: as §1, §2, §3

[11] = molecular target: Hsa-GABA α3β2γ2 (Homo sapiens, UniProt P18507+P34903+P47870); assay: as above
Text: as §1, §2, §3

[12] = molecular target: Hsa-GABA α1β2γ2 (Homo sapiens, UniProt P14867+P18507+P47870); assay: as above
Text: as §1, §2, §3

[13] = molecular target: Hsa-GABA α2β3γ2 (Homo sapiens, UniProt P18507+P28472+P47869); assay: as above
Text: as §1, §2, §3

[14] = molecular target: Hsa-GABA α2β2γ2 (Homo sapiens, UniProt P18507+P47869+P47870); assay: as above
Text: as §1, §2, §3

[15] = test system: Hsa-GABARs; assay: Voltage-clamp inhibition, summary over the six human subunit combinations; conditions: for average GABA current inhibition: at 30 μM, average over Hsa-GABARs; for inhibition of human GABARs (in words): tested up to 30 μM
Protocol: as §2
as §3, with “equations. The concentration-activation curves were fitted using the following equation: Y=100/1+10^H(logEC50-X) where Y is the normalized response, logEC50 is the logarithm of the concentration of agonist eliciting half-maximal current amplitude, X is the log of the dose or concentration, and H is the slope factor or Hill slope. The same equation was used for the concentration-inhibition curves but logEC50 was replaced by logIC50 (half-maximal inhibitory concentration).” for “equations.”
as §4

[16] = set-up: method as in PMID 40269978; conditions: MDR1 mutant dog breeds; cited from earlier work
[17] = test system: human and dog GABAA receptor containing the γ2 subunit; assay: Positive modulation by diazepam to confirm γ2 incorporation; type: cell-based; conditions: all receptor subtypes expressed; data not shown
Protocol: as §2

[18] = set-up: method as in earlier work; conditions: mdr1 mutant mouse model; cited from earlier work
[19] = Xenopus oocytes, −80 mV, 60 s pre-exposure, co-applied with GABA 0.5 µM (near EC10)
[20] = Xenopus oocytes, −80 mV, 60 s pre-exposure, co-applied with GABA 1 µM (near EC10)
[21] = Xenopus oocytes, −80 mV, 60 s pre-exposure, co-applied with GABA 5 µM (near EC10)
[22] = Xenopus oocytes, −80 mV, 60 s pre-exposure, co-applied with GABA 0.3 µM (near EC10)
[23] = Xenopus oocytes, −80 mV, 60 s pre-exposure, co-applied with GABA 3 µM (near EC10)

Clu-GABA α5β2γ2, sequence (A0A8I3PC22 32-462): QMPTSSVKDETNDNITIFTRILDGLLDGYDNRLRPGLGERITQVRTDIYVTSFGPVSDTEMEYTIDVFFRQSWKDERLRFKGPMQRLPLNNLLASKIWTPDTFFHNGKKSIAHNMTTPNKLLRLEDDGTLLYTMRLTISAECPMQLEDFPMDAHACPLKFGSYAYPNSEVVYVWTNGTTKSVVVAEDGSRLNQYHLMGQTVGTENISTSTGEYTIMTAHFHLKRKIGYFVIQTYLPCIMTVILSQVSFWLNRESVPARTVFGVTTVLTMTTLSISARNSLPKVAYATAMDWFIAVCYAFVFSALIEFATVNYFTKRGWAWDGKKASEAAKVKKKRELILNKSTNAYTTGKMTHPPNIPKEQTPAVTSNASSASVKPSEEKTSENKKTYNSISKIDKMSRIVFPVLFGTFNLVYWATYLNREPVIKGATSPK
Clu-GABA α5β2γ2, sequence (A0A8I3RPG5 25-473): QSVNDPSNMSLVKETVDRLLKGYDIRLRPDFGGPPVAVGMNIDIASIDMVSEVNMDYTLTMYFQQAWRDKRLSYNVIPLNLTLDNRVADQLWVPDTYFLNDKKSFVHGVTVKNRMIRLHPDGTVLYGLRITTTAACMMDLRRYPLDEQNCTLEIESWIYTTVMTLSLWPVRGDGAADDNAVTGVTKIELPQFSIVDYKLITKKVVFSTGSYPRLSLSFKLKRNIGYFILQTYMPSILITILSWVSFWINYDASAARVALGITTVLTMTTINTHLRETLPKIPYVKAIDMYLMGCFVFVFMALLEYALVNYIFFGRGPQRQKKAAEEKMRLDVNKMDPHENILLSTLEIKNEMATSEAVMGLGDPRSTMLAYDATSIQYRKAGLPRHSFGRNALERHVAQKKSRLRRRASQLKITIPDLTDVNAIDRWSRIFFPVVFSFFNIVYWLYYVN
Clu-GABA α5β2γ2, sequence (E2RSQ0 40-467): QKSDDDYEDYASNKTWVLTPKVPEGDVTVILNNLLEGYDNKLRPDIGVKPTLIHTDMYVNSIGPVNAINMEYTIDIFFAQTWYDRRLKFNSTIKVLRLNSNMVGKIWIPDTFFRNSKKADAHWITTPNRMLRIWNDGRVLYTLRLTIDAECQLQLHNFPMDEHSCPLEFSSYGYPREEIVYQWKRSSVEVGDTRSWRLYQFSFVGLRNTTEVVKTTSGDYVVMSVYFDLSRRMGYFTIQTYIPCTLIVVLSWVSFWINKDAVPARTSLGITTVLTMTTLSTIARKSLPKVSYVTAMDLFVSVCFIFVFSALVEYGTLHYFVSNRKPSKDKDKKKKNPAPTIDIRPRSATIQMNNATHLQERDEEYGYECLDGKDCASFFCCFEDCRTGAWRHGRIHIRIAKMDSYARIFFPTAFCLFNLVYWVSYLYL
Hsa-GABA α1β2γ2, sequence (P14867 28-456): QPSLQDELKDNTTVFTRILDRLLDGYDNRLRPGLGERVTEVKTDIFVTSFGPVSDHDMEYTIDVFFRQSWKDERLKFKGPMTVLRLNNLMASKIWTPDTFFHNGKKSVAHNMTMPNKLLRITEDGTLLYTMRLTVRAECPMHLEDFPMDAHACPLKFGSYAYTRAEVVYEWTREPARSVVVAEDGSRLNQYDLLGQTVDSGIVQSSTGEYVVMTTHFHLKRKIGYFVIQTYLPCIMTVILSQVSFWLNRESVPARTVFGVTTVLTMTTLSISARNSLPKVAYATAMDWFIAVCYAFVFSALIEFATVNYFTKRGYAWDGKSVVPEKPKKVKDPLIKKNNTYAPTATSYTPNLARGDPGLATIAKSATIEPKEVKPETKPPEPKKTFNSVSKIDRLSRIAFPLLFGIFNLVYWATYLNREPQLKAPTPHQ
Hsa-GABA α1β2γ2, sequence (P47870 26-474 isoform P47870-1 limits assumed): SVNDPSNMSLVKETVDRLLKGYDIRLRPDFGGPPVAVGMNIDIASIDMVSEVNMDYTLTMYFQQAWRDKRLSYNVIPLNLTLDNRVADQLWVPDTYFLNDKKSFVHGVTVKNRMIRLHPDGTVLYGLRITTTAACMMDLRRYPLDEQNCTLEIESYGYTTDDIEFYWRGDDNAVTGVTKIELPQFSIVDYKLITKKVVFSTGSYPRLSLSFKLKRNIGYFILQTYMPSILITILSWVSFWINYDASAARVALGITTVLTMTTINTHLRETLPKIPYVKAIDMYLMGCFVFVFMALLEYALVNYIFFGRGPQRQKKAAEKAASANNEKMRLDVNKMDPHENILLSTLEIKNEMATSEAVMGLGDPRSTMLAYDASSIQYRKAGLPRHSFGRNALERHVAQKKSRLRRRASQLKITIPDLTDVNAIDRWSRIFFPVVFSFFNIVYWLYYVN
Hsa-GABA α1β2γ2, sequence (P18507 40-467 isoform P18507-1 limits assumed): as the sequence (E2RSQ0 40-467) above
Clu-GABA α1β2γ2, sequence (A0A2H4NNI8 28-456): as the sequence (P14867 28-456) above
Clu-GABA α1β2γ2, sequence (A0A8I3RPG5 25-473): as the sequence (A0A8I3RPG5 25-473) above
Clu-GABA α1β2γ2, sequence (E2RSQ0 40-467): as the sequence (E2RSQ0 40-467) above

Compound	IC50 [1, 19]	IC50 [2, 20]	IC50 [3, 20]	IC50 [4, 21]	IC50 [5, 20]	average GABA current inhibition [6]	maximum in vivo concentration in dog plasma [7]	inhibitory effect on human and canine GABARs (in words) [8]	IC50 [9, 22]	IC50 [10, 22]	IC50 [11, 20]	IC50 [12, 20]	IC50 [13, 20]	IC50 [14, 23]	average GABA current inhibition [15]	inhibition of human GABARs (in words) [15]	other results
CS(=O)(=O)CC(=O)N1CC2(C1)OCc1cc(C3=NO[C@@](c4cc(Cl)c(F)c(Cl)c4)(C(F)(F)F)C3)ccc12 [Sarolaner, sarolaner]	13.1 µM	21.8 µM	10.2 µM	10.2 µM	13.4 µM	57%	1.9 µM	partial to high inhibition	8.4 µM	16.1 µM	13.4 µM	21.9 µM	> 30 µM	19.5 µM	53%	partial inhibition	Cmax ([7]; dose of 2 mg/kg body weight, read-out: Cmax in dog plasma): 1.9 µM
Cc1cc(C2=NO[C@@](c3cc(Cl)c(Cl)c(Cl)c3)(C(F)(F)F)C2)sc1C(=O)NCC(=O)NCC(F)(F)F [Lotilaner, lotilaner]	–	–	–	–	–	20%	6.7 µM	inactive	–	–	–	–	–	–	13%	–	IC50 [1]: > 30 µM; IC50 [2]: > 30 µM; IC50 [3]: > 30 µM; IC50 [4]: > 30 µM; IC50 [5]: > 30 µM; IC50 ([8]; range or bound over all eleven subunit combinations): > 30 µM; inhibitory effect on human and canine GABARs (in words) ([8]; listed as lotilaner): little or no inhibitory effect; also recorded: did not show any significant inhibition; neurological symptoms (in words) [16]: did not reveal neurological symptoms; IC50 [9]: > 30 µM; IC50 [10]: > 30 µM; IC50 [11]: > 30 µM; IC50 [12]: > 30 µM; IC50 [13]: > 30 µM; IC50 [14]: > 30 µM
O=C(CNC(=O)c1ccc(C2=NOC(c3cc(Cl)cc(C(F)(F)F)c3)(C(F)(F)F)C2)c2ccccc12)NCC(F)(F)F (centres unmarked) [Afoxolaner, afoxolaner]	17.9 µM	3 µM	7.4 µM	20.6 µM	15.7 µM	57%	–	partial to high inhibition	6.3 µM	11.7 µM	15 µM	–	20.5 µM	9.9 µM	59%	–	Cmax ([7]; oral dosing at 2.5 mg/kg, read-out: Cmax (peak concentration in the bloodstream)): 4.7 µM
CN1C(=O)CN=C(c2ccccc2)c2cc(Cl)ccc21 [diazepam]	–	–	–	–	–	–	–	–	–	–	–	–	–	–	–	–	positive modulation [17]: > 200%
Cc1cc(C2=NOC(c3cc(Cl)cc(Cl)c3)(C(F)(F)F)C2)ccc1C(=O)NCC(=O)NCC(F)(F)F (centres unmarked) [Fluralaner, fluralaner]	9.4 µM	4.3 µM	2.3 µM	2.2 µM	13 µM	76%	–	partial to high inhibition	2.7 µM	2.2 µM	4.9 µM	5.7 µM	5.5 µM	1.9 µM	82%	high inhibition	maximum plasma concentration ([7]; converted from ng/ml): 6.1 µM; maximum plasma concentration [7]: 3400 ng/mL; current inhibition ([9]; at 30 μM): > 90%; current inhibition ([10]; at 30 μM): > 90%; current inhibition ([14]; at 30 μM): > 90%; brain penetration (in words) [18]: brain penetration of fluralaner was observed

Source: paper PMC12144822 (Parasites & Vectors, 2025)
